# Assay results reported in patent US20230194511A1, “Compound Fixing Method, Detection Method, Screening Method, Substrate Used in Same, Compound Fixing Agent, and Fixing Kit” (priority 2020, published 2023).
# Key:
# [1] = test system: anti-prostaglandin E2 antibody; test: Prostaglandin-HSA compound microarray, detection with anti-prostaglandin E2 antibody (Example 5); assay type: binding; details: prostaglandin mixed with HSA 0.1 milligram/milliliter, printed on glass slide
# Protocol: The immobilization of prostaglandins, which are bioactive lipids, was verified. In this example, as the prostaglandins, prostaglandins A1, A2, A3, B1, B2, B3, D1, D2, D3, E1, E2, E3, F1a, F2a, F3a, G2, H1, H2, I2, I3, J2, K1, and K2 were used. The prostaglandins were mixed with HSA in the solvents and at the final concentrations shown in the table below to form prostaglandin and HSA complexes. It should be noted that HSA was added to achieve a final concentration of 0.1 milligram/milliliter.
# Solutions including each prepared prostaglandin and HSA were spotted and printed on glass slides as microdroplets of approximately 2 to 4 nl by using an ultratrace dispensing system (Micro Diagnostic).
# The compound microarrays printed with the prostaglandins were immersed in ethanol and shaken for 30 seconds at room temperature. Subsequently, the compound microarrays were immersed in ultrapure water and shaken for 30 seconds at 26° C. The shaking by ultrapure water was performed twice. For solution replacement, the compound microarrays were immersed in solution A for protein microarrays only (Fukushima Protein Factory, Fukushima, Japan) and shaken for about five minutes at 26° C.
# (§1) The compound microarrays treated as described above were immersed in Blocking One (Nacalai Tesque, Kyoto, Japan) and shaken for one hour at 26° C. Subsequently, the compound microarrays were immersed in solution A for protein microarrays only and shaken for about five minutes at 26° C.
# Using a solution obtained by adding 1/4000 volume of Goat Reference Antibody Mixture I (Fukushima Protein Factory) to the primary antibody diluent for protein microarrays only (Fukushima Protein Factory), an anti-prostaglandin E2 antibody (Ab00484-23.0, Absolute Antibody) was diluted to 1 microgram/milliliter.
# (§2) Two milliliters of the solution with the diluted primary antibody were added to a P-DE1 cassette for protein microarrays (Fukushima Protein Factory). […]
# [2] = test system: anti-amoxicillin antibodies; test: Compound microarray, detection of immobilized compound with anti-amoxicillin antibodies; assay type: binding, mouse; details: concentrations of HSA from 0.5 mM to 0.0005 mM, glass slide
# Protocol: (§3) Further, compounds of bovine serum albumin (BSA) covalently bonded to these 14 compounds in advance (Imgen BioSciences) were printed on glass slides as control samples for comparison. The compounds mixed with HSA were each dissolved in solution A for protein microarrays only (Fukushima Protein Factory) to a concentration of 0.5 mM. Furthermore, HSA was prepared and mixed with the solutions A including the compounds, bringing the final concentrations to 0.1 micrograms/microliter. It should be noted that the printing of each compound on a glass slide was performed by spotting microdroplets of approximately 2 to 4 nl on the glass slide by using an ultratrace dispensing system (Micro Diagnostic).
# (§4) The compound microarrays printed with the compounds were immersed in ethanol and shaken for 30 seconds at room temperature. Subsequently, the compound microarrays were immersed in ultrapure water and shaken for 30 seconds at 26° C. It should be noted that the shaking by ultrapure water was performed twice. For solution replacement, the compound microarrays were immersed in solution A for protein microarrays only (Fukushima Protein Factory, Fukushima, Japan) and shaken for about five minutes at 26° C.
# as §1
# Using a solution obtained by adding 1/4000 volume of Goat Reference Antibody Mixture I (Fukushima Protein Factory) to the primary antibody diluent for protein microarrays only (Fukushima Protein Factory), one of eight mouse monoclonal anti-compound antibodies (Table 2) was diluted to 1 microgram/milliliter.
# as §2
# [3] = test system: anti-ampicillin antibodies; test: Compound microarray, detection of immobilized compound with anti-ampicillin antibodies; assay type: binding, mouse; details: compound 0.5 mM mixed with HSA 0.1 micrograms/microliter, printed on glass slide
# Text: as §3, with “Fourteen compounds (amoxicillin, ampicillin, apramycin, bacitracin, cefalexin, ceftazidime, cloxacillin, gentamicin, hygromycin B, neomycin, penicillin G, streptomycin, sulfadimidine, and tetracycline) were each mixed with human serum albumin (HSA) (Sigma-Aldrich) and printed on glass slides. Further,” for “Further,”
# (§5) The compound microarrays printed with the compounds were immersed in ethanol and shaken for 30 seconds at room temperature. Subsequently, the compound microarrays were immersed in ultrapure water and shaken for 30 seconds at 26° C. […]
# (§6) The compound microarrays were dried, centrifuged at 1500 rpm for one minute, and scanned for fluorescence intensity using a GenePix 4000B (Molecular Devices, Calif., USA). […]
# [4] = test system: anti-penicillin antibodies; test: Compound microarray, detection with anti-penicillin antibodies (Examples 3 and 4, clone not stated); assay type: binding; details: concentrations of HSA from 0.5 mM to 0.0005 mM, glass slide
# [5] = test system: anti-penicillin [P2B9] antibodies; test: Compound microarray, detection of immobilized compound with anti-penicillin [P2B9] antibodies; assay type: binding, mouse; details: compound mixed with HSA, printed on glass slide
# Text: as §3, with “Fourteen compounds (amoxicillin, ampicillin, apramycin, bacitracin, cefalexin, ceftazidime, cloxacillin, gentamicin, hygromycin B, neomycin, penicillin G, streptomycin, sulfadimidine, and tetracycline) were each mixed with human serum albumin (HSA) (Sigma-Aldrich) and printed on glass slides. Further,” for “Further,”
# as §5, §6
# [6] = test system: streptomycin/dihydrostreptomycin [CH-2013]; test: Compound microarray, detection of immobilized compound with streptomycin/dihydrostreptomycin antibody [CH-2013]; assay type: binding, mouse; details: compound mixed with HSA, printed on glass slide
# Text: as §3, with “Fourteen compounds (amoxicillin, ampicillin, apramycin, bacitracin, cefalexin, ceftazidime, cloxacillin, gentamicin, hygromycin B, neomycin, penicillin G, streptomycin, sulfadimidine, and tetracycline) were each mixed with human serum albumin (HSA) (Sigma-Aldrich) and printed on glass slides. Further,” for “Further,”
# as §5, §6
# [7] = test system: anti-streptomycin antibodies; test: Compound microarray, detection of immobilized compound with anti-streptomycin antibodies; assay type: binding, mouse; details: compound mixed with HSA, printed on glass slide
# Text: as §3, with “Fourteen compounds (amoxicillin, ampicillin, apramycin, bacitracin, cefalexin, ceftazidime, cloxacillin, gentamicin, hygromycin B, neomycin, penicillin G, streptomycin, sulfadimidine, and tetracycline) were each mixed with human serum albumin (HSA) (Sigma-Aldrich) and printed on glass slides. Further,” for “Further,”
# as §5, §6
# [8] = test system: anti-dihydrosterptomycin [1.BB.891]; test: Compound microarray, detection of immobilized compound with anti-dihydrostreptomycin antibody [1.BB.891]; assay type: binding, mouse; details: compound mixed with HSA, printed on glass slide
# Text: as §3, with “Fourteen compounds (amoxicillin, ampicillin, apramycin, bacitracin, cefalexin, ceftazidime, cloxacillin, gentamicin, hygromycin B, neomycin, penicillin G, streptomycin, sulfadimidine, and tetracycline) were each mixed with human serum albumin (HSA) (Sigma-Aldrich) and printed on glass slides. Further,” for “Further,”
# as §5, §6
# [9] = test system: anti-gentamycin antibodies; test: Compound microarray, detection of immobilized compound with anti-gentamycin antibodies; assay type: binding, mouse
# Protocol: as §3, §4
# The compound microarrays treated as described above were immersed in Blocking One (Nacalai Tesque, Kyoto, Japan) and shaken for one hour at 26° C. […]
molecule,measurement,setting,value
CCCCC[C@H](O)/C=C/[C@H]1[C@H](O)CC(=O)[C@@H]1C/C=C\CCCC(=O)O [Prostaglandin E2],reaction of the anti-prostaglandin E2 antibody (fluorescence intensity),[1],reacted strongly
CC/C=C\C[C@H](O)/C=C/[C@H]1[C@H](O)CC(=O)[C@@H]1C/C=C\CCCC(=O)O [Prostaglandin E3],reaction of the anti-prostaglandin E2 antibody (fluorescence intensity),[1],reacted strongly
CCCCC[C@H](O)/C=C/[C@@H]1[C@H]2C/C(=C/CCCC(=O)O)O[C@H]2C[C@H]1O [Prostaglandin I2],reaction of the anti-prostaglandin E2 antibody (fluorescence intensity),[1],reacted strongly
CC1(C)S[C@@H]2[C@H](NC(=O)[C@H](N)c3ccc(O)cc3)C(=O)N2[C@H]1C(=O)[O-].[Na+] [amoxicillin sodium],concentration of HSA at which the strongest signal was detected,[2],0.05 mM
same,signal intensity versus HSA concentration,[2],tended to be concentration-dependent
CC1(C)S[C@@H]2[C@H](NC(=O)[C@H](N)c3ccc(O)cc3)C(=O)N2[C@H]1C(=O)O [amoxicillin],signal intensity versus HSA concentration,[2],increased in an HSA concentration-dependence
CC1(C)S[C@@H]2[C@H](NC(=O)[C@H](N)c3ccccc3)C(=O)N2[C@H]1C(=O)O [ampicillin],signal (Red Intensity),[3],strong signal (strong signals (red intensity of 2000 or greater; the same below))
CC1(C)S[C@@H]2[C@H](NC(=O)Cc3ccccc3)C(=O)N2[C@H]1C(=O)[O-].[Na+] [penicillin G sodium],signal intensity versus HSA concentration,[4],increased in an HSA concentration-dependence
CC1(C)S[C@@H]2[C@H](NC(=O)Cc3ccccc3)C(=O)N2[C@H]1C(=O)O [penicillin G],signal (Red Intensity),[5],weak signal
[H]/N=C(/N)N[C@H]1[C@H](O)[C@@H](O)[C@H](O[C@@H]2O[C@@H](C)[C@](O)(C=O)[C@H]2O[C@@H]2O[C@@H](CO)[C@H](O)[C@@H](O)[C@@H]2NC)[C@@H](N/C(N)=N\[H])[C@@H]1O [streptomycin],signal (Red Intensity),[6],weak signal
same,signal (Red Intensity),[7],weak signal
same,signal (Red Intensity),[8],weak signal
gentamycin sulfate,signal (red intensity),"[9]; compound 0.5 mM mixed with each immobilizing protein or HSA (0.1 micrograms/microliter), strong only with this antibody",strong signal (strong signals (red intensity of 2000 or greater; the same below))
same,signal intensity versus HSA concentration,"[9]; concentrations of HSA from 0.5 mM to 0.0005 mM, glass slide",increased in an HSA concentration-dependence
